How the values were obtained:
Assay type in all cases: in vivo
[1] = system: sedge, umbrella (small-flower umbrella sedge, Cyperus difformis); assay: Test B flooded paddy test; details: Cyperus difformis, 360 h, Flood, 250 g ai/ha; visually evaluated after 13 to 15 d; read-out: Plant response rating, Sedge, Umbrella (0 to 100 scale where 0 is no effect and 100 is complete control)
In short: (§1)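 Rating scale 0–100 (visual, vs untreated controls) after a 13–15 d greenhouse period; application to the flood layer, 3 cm above soil and maintained; plants at 2-leaf stage when treated.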

rice (Oryra sativa) = assay: Test B flooded paddy test; details: Oryza sativa, 360 h, Flood, 250 g ai/ha; visually evaluated after 13 to 15 d; read-out: Plant response rating, Rice (0 to 100 scale where 0 is no effect and 100 is complete control)
In short: as §1

[2] = system: ducksalad (Heteranthera limosa); assay: Test B flooded paddy test; details: Heteranthera limosa, 360 h, Flood, 250 g ai/ha; visually evaluated after 13 to 15 d; read-out: Plant response rating, Ducksalad (0 to 100 scale where 0 is no effect and 100 is complete control)
In short: as §1

[3] = system: barnyardgrass (Echinochloa crus-galli); assay: Test B flooded paddy test; details: Echinochloa crus-galli, 360 h, Flood, 250 g ai/ha; visually evaluated after 13 to 15 d; read-out: Plant response rating, Barnyardgrass (0 to 100 scale where 0 is no effect and 100 is complete control)
In short: as §1

[4] = system: giant foxtail (Setaria faberii); assay: Test A preemergence; details: Setaria faberi, pre-emergence, 240 h, Preemergence
In short: (§2)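 Visual injury scores from 0, no effect, to 100, complete control, were assigned versus untreated controls roughly 10 d after treatment in the greenhouse. Test chemicals, formulated with surfactant in a non-phytotoxic solvent, were applied to planted seeds as a preemergence soil spray or postemergence to one- to two-leaf plants 2 to 10 cm tall, in loam–sand soil.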

[5] = system: pigweed (Amaranthus retroflexus); assay: Test A preemergence; details: Amaranthus retroflexus, pre-emergence, 240 h, Preemergence
Kochia (Kochia scoparia) [6] = assay: Test A preemergence; details: Bassia scoparia, pre-emergence, 240 h, Preemergence
In short: as §2

[7] = system: ryegrass, Italian (Italian ryegrass, Lolium multiflorum); assay: Test A preemergence; details: Lolium multiflorum, pre-emergence, 240 h, Preemergence
In short: as §2

[8] = system: ragweed (common ragweed, Ambrosia elatior); assay: Test A preemergence; details: Ambrosia artemisiifolia, pre-emergence, 240 h, Preemergence
In short: as §2

[9] = system: barnyardgrass (Echinochloa crus-galli); assay: Test A preemergence; details: Echinochloa crus-galli, pre-emergence, 240 h, Preemergence
In short: as §2

[10] = system: giant foxtail (Setaria faberii); assay: Test A postemergence; details: Setaria faberi, post-emergence, 240 h, Postemergence, read-out: Foxtail, Giant plant response rating (0 to 100 scale)
In short: as §2

[11] = system: pigweed (Amaranthus retroflexus); assay: Test A postemergence; details: Amaranthus retroflexus, post-emergence, 240 h, Postemergence, read-out: Pigweed plant response rating (0 to 100 scale)
In short: as §2

corn (Zea mays) = assay: Test A postemergence; details: Zea mays, post-emergence, 240 h, Postemergence, read-out: Corn plant response rating (0 to 100 scale)
In short: as §2

Kochia (Kochia scoparia) [12] = assay: Test A postemergence; details: Bassia scoparia, post-emergence, 240 h, Postemergence, read-out: Kochia plant response rating (0 to 100 scale)
In short: as §2

[13] = system: ryegrass, Italian (Italian ryegrass, Lolium multiflorum); assay: Test A postemergence; details: Lolium multiflorum, post-emergence, 240 h, Postemergence, read-out: Ryegrass, Italian plant response rating (0 to 100 scale)
In short: as §2

[14] = system: blackgrass (Alopecurus myosuroides); assay: Test A postemergence; details: Alopecurus myosuroides, post-emergence, 240 h, Postemergence, read-out: Blackgrass plant response rating (0 to 100 scale)
In short: as §2

[15] = system: ragweed (common ragweed, Ambrosia elatior); assay: Test A postemergence; details: Ambrosia artemisiifolia, post-emergence, 240 h, Postemergence, read-out: Ragweed plant response rating (0 to 100 scale)
In short: as §2

[16] = system: barnyardgrass (Echinochloa crus-galli); assay: Test A postemergence; details: Echinochloa crus-galli, post-emergence, 240 h, Postemergence
In short: as §2

[17] = system: wheat (Triticum aestivum); assay: Test A postemergence; details: Triticum aestivum, post-emergence, 240 h, Postemergence, read-out: Wheat plant response rating (0 to 100 scale)
In short: as §2

[18] = 125 g ai/ha, visual rating about 10 d after treatment
[19] = 31 g ai/ha, 0 is no effect, 100 is complete control

COc1ccc([C@H]2CN(C)C(=O)[C@@H]2C(=O)Nc2cccc(F)c2F)cc1 [Compound 1343]
pest or weed control at 250 g/ha [1]: 0% | pest or weed control at 250 g/ha (rice (Oryra sativa)): 0% | pest or weed control at 250 g/ha [2]: 98% | pest or weed control at 250 g/ha [3]: 95% | pest or weed control at 31 g/ha ([4]; 31 g ai/ha, 0 to 100 scale where 0 is no effect and 100 is complete control, read-out: Foxtail, Giant plant response rating): 100% | pest or weed control at 125 g/ha ([4]; 125 g ai/ha, 0 to 100 scale (0 no effect, 100 complete control), read-out: Plant response rating, Foxtail, Giant): 100% | pest or weed control at 31 g/ha ([5]; 31 g ai/ha, 0 to 100 scale where 0 is no effect and 100 is complete control, read-out: Pigweed plant response rating): 0% | pest or weed control at 125 g/ha ([5]; 125 g ai/ha, 0 to 100 scale (0 no effect, 100 complete control), read-out: Plant response rating, Pigweed): 30% | pest or weed control at 31 g/ha (Kochia (Kochia scoparia) [6]; 31 g ai/ha, 0 to 100 scale where 0 is no effect and 100 is complete control, read-out: Kochia plant response rating): 0% | pest or weed control at 125 g/ha (Kochia (Kochia scoparia) [6]; 125 g ai/ha, 0 to 100 scale (0 no effect, 100 complete control), read-out: Plant response rating, Kochia): 40% | pest or weed control at 31 g/ha ([7]; 31 g ai/ha, 0 to 100 scale where 0 is no effect and 100 is complete control, read-out: Ryegrass, Italian plant response rating): 0% | pest or weed control at 125 g/ha ([7]; 125 g ai/ha, 0 to 100 scale (0 no effect, 100 complete control), read-out: Plant response rating, Ryegrass, Italian): 30% | pest or weed control at 31 g/ha ([8]; 31 g ai/ha, 0 to 100 scale where 0 is no effect and 100 is complete control, read-out: Ragweed plant response rating): 90% | pest or weed control at 125 g/ha ([8]; 125 g ai/ha, 0 to 100 scale (0 no effect, 100 complete control), read-out: Plant response rating, Ragweed): 0% | pest or weed control at 31 g/ha ([9]; 31 g ai/ha, 0 to 100 scale where 0 is no effect and 100 is complete control, read-out: Barnyardgrass plant response rating): 90% | pest or weed control at 125 g/ha ([9]; 125 g ai/ha, 0 to 100 scale (0 no effect, 100 complete control), read-out: Plant response rating, Barnyardgrass): 90% | pest or weed control at 125 g/ha [10, 18]: 90% | pest or weed control at 31 g/ha [10, 19]: 60% | pest or weed control at 125 g/ha [11, 18]: 0% | pest or weed control at 31 g/ha [11, 19]: 0% | plant injury at 125 g/ha (corn (Zea mays); [18]): 0% | plant injury at 31 g/ha (corn (Zea mays); [19]): 0% | pest or weed control at 125 g/ha (Kochia (Kochia scoparia) [12]; [18]): 50% | pest or weed control at 31 g/ha (Kochia (Kochia scoparia) [12]; [19]): 0% | pest or weed control at 125 g/ha [13, 18]: 20% | pest or weed control at 31 g/ha [13, 19]: 0% | pest or weed control at 125 g/ha [14, 18]: 0% | pest or weed control at 31 g/ha [14, 19]: 0% | pest or weed control at 125 g/ha [15, 18]: 30% | pest or weed control at 31 g/ha [15, 19]: 0% | pest or weed control at 125 g/ha ([16]; 125 g ai/ha, visual rating about 10 d after treatment, read-out: Barnyardgrass plant response rating (0 to 100 scale, 0 no effect, 100 complete control)): 90% | pest or weed control at 31 g/ha ([16]; 31 g ai/ha, 0 is no effect, 100 is complete control, read-out: Barnyardgrass plant response rating (0 to 100 scale)): 60% | plant injury at 125 g/ha [17, 18]: 30% | plant injury at 31 g/ha [17, 19]: 0%

Source: patent US12077503B2, “Substituted cyclic amides and their use as herbicides” (FMC CORPORATION, priority 2015, dated 2024)
